Assays:
[1] = biological target: T1, His6-BRD4 (BD1) (Homo sapiens, UniProt O60885); assay: Surface plasmon resonance (SPR) single-dose screening; format: binding; set-up: key to SPR RESULT: Positive: compounds were considered as SPR hits also when their average signal was further than two standard deviations apart from the average signal of the blank samples (1% DMSO); conditions: for RUs at [10 µM]: SPR, compound 10 µM, 1% DMSO, n = 2, decimal comma; for SPR RESULT: single dose 10 µM, n = 2
T1 construct: A pET28 plasmid containing residues 44–168 of BRD4 (BD1), a 6xHis tag, a TEV protease cleavage site; made in house; host or cells: E. coli Rosetta (D3)

[2] = biological target: T2, BRD4 (BD1) (Homo sapiens, UniProt O60885); assay: Differential scanning fluorimetry (DSF) single-dose thermal shift screening; format: binding; conditions: DSF, compound 10 µM, BRD4 (BD1) 2 µM, n = 3, decimal comma; for ΔTm at 10 µM: read-out: ΔTm ºC at [10 µM]
T2 construct: A pET28 plasmid containing residues 44–168 of BRD4 (BD1), a 6xHis tag, a TEV protease cleavage site; 6xHis (N, cleaved yes); made in house; host or cells: E. coli Rosetta (D3)

[3] = biological target: T2, BRD4 (BD1); assay: Competitive HTRF TR-FRET binding assay (displacement of acetylated histone H4 peptide); conditions: 16-point titration 0.1 nM to 10 µM, n = 2, Negative = curve could not be fitted to a sigmoidal curve; for IC50: read-out: TR-FRET IC50
[4] = biological target: T2, BRD4 (BD1); conditions: advanced BRD4 (BD1) drug; cited from earlier work

SMILES | RUs at [10 µM] [1] | SPR RESULT [1] | ΔTm at 10 µM [2] [°C] | IC50 [3] [nM] | ΔTm ºC at [10 µM] [2] | TR-FRET IC50 (nM) [3] | Ki [4] [nM]
Cc1nc(=O)c(CCC(=O)NC2CC(O)(Cn3cc(-c4cnn(C)c4C)nn3)C2)c[nH]1 (centres unmarked) [Compound 81, CC1=C(C=NN1C)C2=CN(CC3(O)CC(C3)NC(=O)CCC4=CNC(C)=NC4=O)N=N2] | 11,5 ± 1,85 RUs | Positive | -0.15 | 26.4 | – | – | –
CCCc1c(C(=O)N2CCOC(Cn3cc(-c4ccsc4)nn3)C2)[nH]c(C)c1C(C)=O (centres unmarked) [Compound 22, CCCC1=C(NC(C)=C1C(=O)C)C(=O)N2CCOC(CN3C=C(N=N3)C=4C=CSC4)C2] | 20,06 ± 0,43 RUs | Positive | 2.02 | 46 | – | – | –
COc1ccc(-n2c(C)nnc2SCC(=O)Nc2ccc(C)c(Cl)c2Cl)cc1 [Compound 12, COC=1C=CC(=CC1)N2C(C)=NN=C2SCC(=O)NC=3C=CC(C)=C(Cl)C3Cl] | 78,35 ± 18,49 RUs | Positive | – | – | -0,57 ± 0,38 ºC | Negative | –
CCCc1c(C(=O)N(C)C2CN(C(=O)c3cc(C)n[nH]3)C2)[nH]c(C)c1C(C)=O [Compound 96, CCCC1=C(NC(C)=C1C(=O)C)C(=O)N(C)C2CN(C2)C(=O)C3=CC(C)=NN3] | 16,1 ± 0,61 RUs | Positive | 2.24 | 211 | – | – | –
COc1ccc(-n2c(C)nnc2SCC(=O)NC2CCN(C(=O)c3cc(Cl)sc3Cl)CC2C)cc1 (centres unmarked) [Compound 52, COC=1C=CC(=CC1)N2C(C)=NN=C2SCC(=O)NC3CCN(CC3C)C(=O)C=4C=C(Cl)SC4Cl] | 31,14 ± 2,8 RUs | Positive | -0.23 | 266 | – | – | –
Cc1nc(=O)c(CCC(=O)N2CC3(CCCC3)c3ccccc32)c[nH]1 [Compound 85, CC1=NC(=O)C(CCC(=O)N2CC3(CCCC3)C=4C=CC=CC24)=CN1] | 24,26 ± 6,71 RUs | Positive | 1.18 | 18 | – | – | –
CCn1nnc2cc(C(=O)N3CCCN(C(=O)c4ccccc4Cl)C(c4ccccc4)C3)ccc21 (centres unmarked) [Compound 34, CCN1N=NC=2C=C(C=CC12)C(=O)N3CCCN(C(C3)C=4C=CC=CC4)C(=O)C=5C=CC=CC5Cl] | 23,05 ± 1,41 RUs | Positive | 0.86 | 1210 | – | – | –
CCCc1c(C(=O)NCc2cccc3c2OCCO3)[nH]c(C)c1C(C)=O [Compound 16, CCCC1=C(NC(C)=C1C(=O)C)C(=O)NCC=2C=CC=C3OCCOC23] | 20,24 ± 10,15 RUs | Negative | -0.43 | 1090 | – | – | –
Cc1cc(C)n2nc(CC(=O)NCC(C)(C)Cn3cc(-c4sccc4C)nn3)nc2n1 [Compound 64, CC=1C=CSC1C2=CN(CC(C)(C)CNC(=O)CC=3N=C4N=C(C)C=C(C)N4N3)N=N2] | 25,91 ± 0,65 RUs | Positive | 0.1 | – | – | Negative | –
Cc1cc(C)n2nc(NC(=O)N3CCC(CCC(C)(C)C)C3)nc2n1 (centres unmarked) [Compound 74, CC=1C=C(C)N2N=C(NC(=O)N3CCC(CCC(C)(C)C)C3)N=C2N1] | 52,94 ± 6,92 RUs | Positive | 0.4 | 1370 | – | – | –
Cc1ccc(CNC(=O)c2ccc3nnc(C)c(C)c3c2)c(OC2CCOC2)c1 (centres unmarked) [Compound 20, CC=1C=CC(CNC(=O)C=2C=CC=3N=NC(C)=C(C)C3C2)=C(OC4CCOC4)C1] | 41,88 ± 12,55 RUs | Positive | 2.33 | – | – | Negative | –
COc1ccc(-n2c(C)nnc2SCC(=O)N(c2ccccc2)C2CC2)cc1 [Compound 48, COC=1C=CC(=CC1)N2C(C)=NN=C2SCC(=O)N(C3CC3)C=4C=CC=CC4] | 4,63 ± 0,03 RUs | Negative | 2.35 | 53.2 | – | – | –
CN(C)C(=O)Sc1cc(NC(=O)c2cn(C)c(=O)c3ccccc23)ccc1Cl [Compound 53, CN(C)C(=O)SC=1C=C(NC(=O)C2=CN(C)C(=O)C=3C=CC=CC23)C=CC1Cl] | 28,62 ± 5,34 RUs | Positive | 1.09 | 1040 | – | – | –
CCS(=O)(=O)Nc1ccc(Oc2ccc(F)cc2F)c(-c2cn(C)c(=O)c3[nH]ccc23)c1 [Compound 1, CCS(=O)(=O)NC1=CC(=C(C=C1)OC2=C(C=C(C=C2)F)F)C3=CN(C(=O)C4=C3C=CN4)C, reference compound] | 116,86 ± 26,64 RUs | – | – | – | – | – | 11
COc1ccc(-n2c(C)nnc2SCC(=O)NCc2ccc(F)c(C)c2)cc1 [Compound 19, COC=1C=CC(=CC1)N2C(C)=NN=C2SCC(=O)NCC=3C=CC(F)=C(C)C3] | 33,98 ± 20,29 RUs | Negative | 1.36 | 543 | – | – | –
COc1ccc(-n2c(C)nnc2SCC(=O)Nc2cn(C)nc2C(N)=O)cc1 [Compound 17, COC=1C=CC(=CC1)N2C(C)=NN=C2SCC(=O)NC3=CN(C)N=C3C(=O)N] | 9,07 ± 0,52 RUs | Positive | 1.17 | 192 | – | – | –
Cc1ncc(CNC(=O)c2c(-c3ccccc3)nn3ccccc23)c(O)n1 [Compound 75, CC=1N=CC(CNC(=O)C=2C(=NN3C=CC=CC23)C=4C=CC=CC4)=C(O)N1] | 14,74 ± 1,95 RUs | Positive | 1.2 | – | – | Negative | –
Cc1cc(C)n2nc(NC(=O)NCCOC3(C)CCOCC3)nc2n1 [Compound 71, CC=1C=C(C)N2N=C(NC(=O)NCCOC3(C)CCOCC3)N=C2N1] | 11,01 ± 0,31 RUs | Positive | 0.79 | 71.4 | – | – | –
Cc1nnc(NC(=O)CCC(=O)N2Cc3ccccc3OC3(CCOC3)C2)s1 (centres unmarked) [Compound 76, CC1=NN=C(NC(=O)CCC(=O)N2CC=3C=CC=CC3OC4(CCOC4)C2)S1] | 25 ± 11,77 RUs | Negative | 2.11 | 405 | – | – | –

From paper PMC12316891, “A bottom-up approach to find lead compounds in expansive chemical spaces” (Communications Chemistry, 2025)
